# Results as given in patent publication US8822485B2, “Amino heteroaryl compounds as beta-secretase modulators and methods of use” (Amgen Inc., priority 2010, dated 2014).
# Tests used:
# BACE1 = BACE1 (Homo sapiens, UniProt P56817); experiment: In vitro enzymatic BACE FRET assay; type: biochemical; conditions: IC50 range class; 0.2 nM enzyme, 50 nM FRET substrate, pH 4.2
# Protocol: In Vitro Enzymatic BACE FRET (Fluorescence Resonance Energy Transfer) Assay (Enzyme Assay Data in Table 1)
# The assay buffer used in this screen is 0.05 M acetate, pH 4.2, 10% DMSO final, 100 uM genapol (which is a nonionic detergent, below its Critical Micelle Concentration). The Beta Secretase enzyme (0.2 nM) is pre-incubated for one hour with inhibitors, typically in about 1 uL of DMSO according to a serial dilution, are added thereto. The assay is effectively started by the addition of FRET substrate (50 nM) and the combination is incubated for one hour. The FRET assay is terminated with by addition of Tris buffer, which raises the pH to neutrality, and the fluorescence is determined. The FRET substrate is a peptide with commercially available fluorophore and quencher, on opposite sides of the BACE cleavage site. Proteolytic cleavage of the FRET substrate releases quenching of fluorescence (excitation […] and […]).
# Of the compounds tested, the in-vitro BACE FRET enzyme data for each of Examples 1-33, where available at the time of filing this application, is provided in Table 1.
# [1] = system: Aβ40 in conditioned medium of cells stably expressing Amyloid Precursor Protein (APP) (HEK cell); experiment: In vitro BACE cell-based assay (HEK cell assay, Aβ40 sandwich ELISA); conditions: Homo sapiens, HEK293; IC50 range class; inhibition of Aβ40 after 24 h incubation
# Protocol: In Vitro BACE Cell-Based Assay:
# The cell-based assay measures inhibition or reduction of Aβ40 □ in conditioned medium of test compound treated cells expressing amyloid precursor protein.
# Cells stably expressing Amyloid Precursor Protein (APP) were plated at a density of 40K cells/well in 96 well plates (Costar). The cells were cultivated for 24 hours at 37° C. and 5% CO2 in DMEM supplemented with 10% FBS. The test compounds were then added to cells in 10-point dose response concentrations with the starting concentration being either 100 μM or 10 μM. The compounds were diluted from stock solutions in DMSO and the final DMSO concentration of the test compounds on cells was 0.1%. After 24 h of incubation with the test compounds the supernatant conditioned media was collected and the Aβ 40 levels were determined using a sandwich ELISA. The IC50 of the compound was calculated from the percent of control or percent inhibition of Aβ40 as a function of the concentration of the test compound.
# The sandwich ELISA to detect Aβ 40 was performed in 96 well microtiter plates, which were pre-treated with goat anti-rabbit IgG (Pierce). The capture and detecting antibody pair that were used to detect Aβ 40 from cell supernatants were affinity purified pAb40 (Biosource) and biotinylated 6E10 (Signet Labs Inc.), respectively. The optimal concentration for the pAb40 antibody was 3 μg/ml in Superblock/TBS (Pierce) that was supplemented with 0.05% Tween 20 (Sigma). Optimal concentration for the detection antibody 6E10-biotinylated was 0.5 μg/ml in Superblock/TBS (Pierce) that had been supplemented with 2% normal goat serum and 2% normal mouse serum.
# Cellular supernatants were incubated with the capture antibody for 3 h at 4° C., followed by 3 wash steps in TBS-tween (0.05%). The detecting antibody incubation was for 2 h at 4° C., again followed by the wash steps as described previously. The final readout of the ELISA is Time-Resolved Fluorescence (counts per minute) using Delfia reagents Streptavidin-Europium and Enhancement solutions (Perkin Elmer) and the Victor 2 multilabel counter (Perkin Elmer).
# Of the compounds tested, the cell based assay data for each of Examples 1-33, where available at the time of filing this application, is provided in Table 1.
# Chain of BACE1 (P56817 46-501, species assumed): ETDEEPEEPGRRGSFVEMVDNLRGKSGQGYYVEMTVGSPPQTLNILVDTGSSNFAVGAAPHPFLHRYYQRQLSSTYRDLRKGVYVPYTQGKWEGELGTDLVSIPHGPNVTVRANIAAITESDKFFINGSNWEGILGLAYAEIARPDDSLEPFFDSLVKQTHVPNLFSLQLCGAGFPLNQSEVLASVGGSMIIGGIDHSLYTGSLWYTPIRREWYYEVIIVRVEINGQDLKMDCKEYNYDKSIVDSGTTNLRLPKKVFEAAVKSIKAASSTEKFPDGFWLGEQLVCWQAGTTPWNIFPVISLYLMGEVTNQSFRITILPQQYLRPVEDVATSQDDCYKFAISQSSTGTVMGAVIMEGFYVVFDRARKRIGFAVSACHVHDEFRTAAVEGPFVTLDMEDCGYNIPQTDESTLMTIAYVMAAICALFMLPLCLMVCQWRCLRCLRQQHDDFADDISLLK
structure (smiles),measurement,setting,value
"Cc1ccccc1-c1ccc2nc(N)c(CCc3cncc(CC(C)C)c3)cc2c1 [Example 18, 3-(2-(5-isobutylpyridin-3-yl)ethyl)-6-o-tolylquinolin-2-amine]",IC50,BACE1,100 to 1000 nM
same,IC50,[1],1000 to 5000 nM
